Experimental data from patent US12540131B2 (Merck Sharp & Dohme LLC, priority 2019, dated 2026).

target: GST tagged truncated human mutant G2019S LRRK2 (Homo sapiens (Human), UniProt Q5S007, G2019S); test: LRRK2 Km ATP LanthaScreen Assay; format: biochemical; settings: G2019S LRRK2, 134 μM ATP (Km ATP), mean values
Outline: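 Enzyme (GST-tagged, truncated) was preincubated with compound for 15 min at RT in 50 mM Tris pH 8.5, 10 mM MgCl2, 0.01% Brij-35, 1 mM EGTA, 2 mM DTT and 0.05 mM orthovanadate. Fluorescein-LRRKtide and 134 μM ATP (Km) were then added for 90 min. EDTA and Tb-anti-pERM antibody stopped the reaction; the TR-FRET 520/495 ratio gave 4-parameter IC50s, reported as mean pIC50.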

Chain of GST tagged truncated human mutant G2019S LRRK2 (Q5S007 970-2527 G2019S): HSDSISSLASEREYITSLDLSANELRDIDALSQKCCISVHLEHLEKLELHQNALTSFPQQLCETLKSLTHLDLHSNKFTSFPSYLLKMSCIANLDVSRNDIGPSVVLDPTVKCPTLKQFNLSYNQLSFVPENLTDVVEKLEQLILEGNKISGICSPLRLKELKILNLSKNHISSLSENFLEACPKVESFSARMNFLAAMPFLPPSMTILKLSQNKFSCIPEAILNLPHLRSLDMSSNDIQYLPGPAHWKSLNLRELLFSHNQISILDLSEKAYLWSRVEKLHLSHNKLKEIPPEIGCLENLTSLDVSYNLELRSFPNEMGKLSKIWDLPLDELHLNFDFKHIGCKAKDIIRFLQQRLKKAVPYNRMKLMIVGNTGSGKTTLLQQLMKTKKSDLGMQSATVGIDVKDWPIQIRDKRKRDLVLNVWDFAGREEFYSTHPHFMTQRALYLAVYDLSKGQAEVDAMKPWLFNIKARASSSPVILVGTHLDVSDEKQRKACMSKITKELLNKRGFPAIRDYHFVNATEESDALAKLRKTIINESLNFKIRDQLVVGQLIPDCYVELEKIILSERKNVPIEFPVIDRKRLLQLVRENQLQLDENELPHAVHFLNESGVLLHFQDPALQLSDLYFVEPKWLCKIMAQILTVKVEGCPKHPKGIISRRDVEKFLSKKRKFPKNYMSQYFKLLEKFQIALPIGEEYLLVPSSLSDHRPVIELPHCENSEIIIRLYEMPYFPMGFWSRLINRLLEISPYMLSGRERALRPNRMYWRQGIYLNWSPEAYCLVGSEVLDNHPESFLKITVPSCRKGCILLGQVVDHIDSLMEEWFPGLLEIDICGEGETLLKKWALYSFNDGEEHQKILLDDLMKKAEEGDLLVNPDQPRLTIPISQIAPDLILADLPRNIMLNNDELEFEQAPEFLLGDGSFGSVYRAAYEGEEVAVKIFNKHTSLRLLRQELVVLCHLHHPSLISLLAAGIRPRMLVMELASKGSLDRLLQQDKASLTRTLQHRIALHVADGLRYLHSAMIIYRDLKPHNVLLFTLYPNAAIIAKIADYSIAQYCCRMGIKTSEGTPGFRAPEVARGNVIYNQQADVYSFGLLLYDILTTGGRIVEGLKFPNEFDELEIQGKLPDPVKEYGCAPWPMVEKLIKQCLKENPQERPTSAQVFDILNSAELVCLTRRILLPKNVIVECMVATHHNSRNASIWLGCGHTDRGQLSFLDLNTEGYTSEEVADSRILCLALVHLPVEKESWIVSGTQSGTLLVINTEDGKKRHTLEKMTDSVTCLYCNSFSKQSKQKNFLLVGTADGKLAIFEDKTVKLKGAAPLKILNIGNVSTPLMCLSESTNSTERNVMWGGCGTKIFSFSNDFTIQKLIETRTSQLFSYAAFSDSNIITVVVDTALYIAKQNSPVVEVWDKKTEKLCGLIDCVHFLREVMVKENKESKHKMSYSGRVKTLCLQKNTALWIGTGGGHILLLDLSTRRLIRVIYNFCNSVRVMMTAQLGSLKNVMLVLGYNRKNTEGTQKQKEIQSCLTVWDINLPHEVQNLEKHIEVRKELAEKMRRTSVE

Row | SMILES | LRRK2 pIC50
1 | O=S1(=O)CC(N2CC[C@@H](c3cc4nc(Nc5cnn(C6CC6(F)F)c5Cl)ncc4cc3Cl)[C@H](F)C2)C1 (single isomer, unassigned) [Ex-4.124, (S)(3S,4S) or (S)(3R,4R) or (R)(3S,4S) or (R)(3R,4R) 3-[4-(6-chloro-2-{[5-chloro-1-(2,2-difluorocyclopropyl)-1H-pyrazol-4-yl]amino}quinazolin-7-yl)-3-fluoropiperidin-1-yl]thietane 1,1-dioxide] | 8.91
2 | Cc1cc2cnc(Nc3cnn(C)c3C)nc2cc1C1CCN([C@]2(C)COC[C@@H]2O)CC1 (single isomer, unassigned) [Ex-2.81, (3S,4S) or (3R,4R) 4-(4-{2-[(1,5-dimethyl-1H-pyrazol-4-yl)amino]-6-methylquinazolin-7-yl}piperidin-1-yl)-4-methyloxolan-3-ol] | 7.35
3 | Cc1c(Nc2ncc3cc(Cl)c(C4CCN(C[C@@H](O)c5ccccc5)CC4)cc3n2)cnn1C1CC1 [Ex-4.193, (1S)-2-(4-{6-chloro-2-[(1-cyclopropyl-5-methyl-1H-pyrazol-4-yl)amino]quinazolin-7-yl}piperidin-1-yl)-1-phenylethan-1-ol] | 9.04
4 | Cc1c(Nc2ncc3cc(Cl)c(C4CCN(C5(C)CCCC5O)CC4)cc3n2)cnn1C1CC1 (single isomer, unassigned) [Ex-1.19, (1R,2S) or (1S,2R) or (1S,2S) or (1R,2R) 2-(4-(6-chloro-2-((1-cyclopropyl-5-methyl-1H-pyrazol-4-yl)amino)quinazolin-7-yl)piperidin-1-yl)-2-methylcyclopentan-1-ol] | 7.59
5 | Cc1cc(Nc2ncc3cc(Cl)c(C4CCN(C5COC5)CC4)cc3n2)sn1 [Ex-4.45, 6-chloro-N-(3-methyl-1,2-thiazol-5-yl)-7-[1-(oxetan-3-yl)piperidin-4-yl]quinazolin-2-amine] | >9.20
6 | Cc1cc2cnc(Nc3cnn(C4CC4(F)F)c3C)nc2cc1C1CCN([C@H]2COC[C@H]2O)CC1 (single isomer, unassigned) [Ex-4.141, (R)(3S,4S) or (S)(3S,4S) or (R)(3R,4R) or (S)(3R,4R) 4-[4-(2-{[1-(2,2-difluorocyclopropyl)-5-methyl-1H-pyrazol-4-yl]amino}-6-methylquinazolin-7-yl)piperidin-1-yl]oxolan-3-ol] | >9.20
7 | Cn1nc(C2CC2)cc1Nc1ncc2cc(Cl)c(C3CCN([C@@H]4COC[C@@H]4O)CC3)cc2n1 (single isomer, unassigned) [Ex-1.23, (3S,4S) or (3R,4R) 4-(4-{6-chloro-2-[(3-cyclopropyl-1-methyl-1H-pyrazol-5-yl)amino]quinazolin-7-yl}piperidin-1-yl)oxolan-3-ol] | 9.00
8 | Cc1nn(CC2(C#N)CC2)cc1Nc1ncc2cc(Cl)c(C3CCN(C4COC4)CC3)cc2n1 [Ex-2.17, 1-{[4-({6-chloro-7-[1-(oxetan-3-yl)piperidin-4-yl]quinazolin-2-yl}amino)-3-methyl-1H-pyrazol-1-yl]methyl}cyclopropane-1-carbonitrile] | >9.20
9 | [2H]C([2H])([2H])n1ncc(Nc2ncc3cc(Cl)c(C4CCN([C@H]5COC[C@H]5O)CC4)cc3n2)c1Cl (single isomer, unassigned) [Ex-2.70, (3S,4S) or (3R,4R) 4-(4-(6-chloro-2-((5-chloro-1-(methyl-d3)-1H-pyrazol-4-yl)amino)quinazolin-7-yl)piperidin-1-yl)tetrahydrofuran-3-ol] | >9.20
10 | Cc1cc2cnc(Nc3cnn(C)c3C)nc2cc1[C@@H]1CCN([C@@H]2COC[C@@H]2O)C[C@H]1F (single isomer, unassigned) [Ex-4.257, (3S,4S)(3S,4S) or (3S,4S)(3R,4R) or (3R,4R)(3S,4S) or (3R,4R)(3R,4R) 4-(4-(2-((1,5-dimethyl-1H-pyrazol-4-yl)amino)-6-methylquinazolin-7-yl)-3-fluoropiperidin-1-yl)tetrahydrofuran-3-ol] | >9.20
11 | O[C@@H]1COC[C@@H]1N1CC[C@H](c2cc3nc(Nc4cnn(C56CC(C5)C6)c4Cl)ncc3cc2Cl)[C@@H](F)C1 (single isomer, unassigned) [Ex-8.32, (3S,4S)(3S,4S) or (3S,4S)(3R,4R) or (3R,4R)(3S,4S) or (3R,4R)(3R,4R) 4-[4-(2-{[1-(bicyclo[1.1.1]pentan-1-yl)-5-chloro-1H-pyrazol-4-yl]amino}-6-chloroquinazolin-7-yl)-3-fluoropiperidin-1-yl]oxolan-3-ol] | 9.05
12 | Cc1cc2cnc(Nc3cnn(C4CC4)c3C)nc2cc1[C@H]1CCN(C2COC2)C[C@@H]1F (single isomer, unassigned) [Ex-5.4, (3S,4S) or (3R,4R) N-(1-cyclopropyl-5-methyl-1H-pyrazol-4-yl)-7-[3-fluoro-1-(oxetan-3-yl)piperidin-4-yl]-6-methylquinazolin-2-amine] | 8.75
13 | OC1(Cn2ncc(Nc3ncc4cc(Cl)c(C5CCN(C6COC6)CC5)cc4n3)c2Cl)CCC1 [Ex-8.26, 1-{[5-chloro-4-({6-chloro-7-[1-(oxetan-3-yl)piperidin-4-yl]quinazolin-2-yl}amino)-1H-pyrazol-1-yl]methyl}cyclobutan-1-ol] | 8.78
14 | Cc1cc(Nc2ncc3cc(Cl)c([C@H]4CCN(C)C[C@@H]4F)cc3n2)sn1 (single isomer, unassigned) [Ex-4.53, (3S,4S) or (3R,4R) 6-chloro-7-(3-fluoro-1-methylpiperidin-4-yl)-N-(3-methyl-1,2-thiazol-5-yl)quinazolin-2-amine] | >9.20
15 | Clc1cc2cnc(Nc3cnn(C4CC4)c3Cl)nc2cc1C1CC2CCC(C1)N2C1COC1 (stereo not drawn) [Ex-4.112, cis or trans 6-chloro-N-(5-chloro-1-cyclopropyl-1H-pyrazol-4-yl)-7-(8-(oxetan-3-yl)-8-azabicyclo[3.2.1]octan-3-yl)quinazolin-2-amine] | >9.20
16 | Cc1c(Nc2ncc3cc(Cl)c(C4CCN(C[C@H](O)c5c(F)cccc5F)CC4)cc3n2)cnn1C1CC1 [Ex-4.208, (1R)-2-(4-{6-chloro-2-[(1-cyclopropyl-5-methyl-1H-pyrazol-4-yl)amino]quinazolin-7-yl}piperidin-1-yl)-1-(2,6-difluorophenyl)ethan-1-ol] | 7.96
17 | Cc1cc2cnc(Nc3cnn(C4CC4)c3C)nc2cc1[C@@H]1CCN(C2COC2)C[C@H]1F (single isomer, unassigned) [Ex-5.3, (3S,4S) or (3R,4R) N-(1-cyclopropyl-5-methyl-1H-pyrazol-4-yl)-7-[3-fluoro-1-(oxetan-3-yl)piperidin-4-yl]-6-methylquinazolin-2-amine] | 8.96
18 | Cc1c(Nc2ncc3cc(Cl)c(C4CCN(C5COCC5C#N)CC4)cc3n2)cnn1C1CC1 (single isomer, unassigned) [Ex-2.49, (3S,4S) or (3R,4R) or (3S,4R) or (3R,4S) 4-(4-{6-chloro-2-[(1-cyclopropyl-5-methyl-1H-pyrazol-4-yl)amino]quinazolin-7-yl}piperidin-1-yl)oxolane-3-carbonitrile] | 8.88
19 | CC(n1ncc(Nc2ncc3cc(Cl)c([C@@H]4CCN(C5COC5)C[C@H]4F)cc3n2)c1Cl)C(C)(C)O (single isomer, unassigned) [Ex-4.65, (R)(3S,4S) or (R)(3R,4R) or (S)(3S,4S) or (S)(3R,4R) 3-[5-chloro-4-({6-chloro-7-[3-fluoro-1-(oxetan-3-yl)piperidin-4-yl]quinazolin-2-yl}amino)-1H-pyrazol-1-yl]-2-methylbutan-2-ol] | 8.91
20 | Cc1c(Nc2ncc3cc(Cl)c(C4CCC(C)(O)CC4)cc3n2)cnn1C1CC1 (stereo not drawn) [Ex-2.63, cis- or trans-4-{6-chloro-2-[(1-cyclopropyl-5-methyl-1H-pyrazol-4-yl)amino]quinazolin-7-yl}-1-methylcyclohexan-1-ol] | 8.92

same assay, conditions: G2019S LRRK2, 134 μM ATP (Km ATP), mean values; read-out: LRRK2 pIC50 (converted)

Row | SMILES | IC50 [nM]
21 | CC1(N2CCC(n3ncc(Nc4ncc5cc(Cl)c(C6CC67CCC7)cc5n4)c3Cl)CC2)COC1 (single isomer, unassigned) [Ex-2.9, (S) or (R) 6-chloro-N-{5-chloro-1-[1-(3-methyloxetan-3-yl)piperidin-4-yl]-1H-pyrazol-4-yl}-7-(spiro[2.3]hexan-1-yl)quinazolin-2-amine] | 36.3
22 | Clc1cc2cnc(Nc3cnn(C4CC4)c3Cl)nc2cc1C1CCN(C2COC2)C1 (single isomer, unassigned) [Ex-4.33, (S) or (R) 6-chloro-N-(5-chloro-1-cyclopropyl-1H-pyrazol-4-yl)-7-[1-(oxetan-3-yl)pyrrolidin-3-yl]quinazolin-2-amine] | 8.13
23 | CCn1ncc(Nc2ncc3cc(Cl)c(C4CC45CC5)cc3n2)c1C (single isomer, unassigned) [Ex-1.2, (S) or (R) 6-chloro-N-(1-ethyl-5-methyl-1H-pyrazol-4-yl)-7-(spiro[2.2]pentan-1-yl)quinazolin-2-amine] | 186
24 | Cc1c(Nc2ncc3cc(Cl)c(C4CCN(C5COC5)[C@@H](C)C4)cc3n2)cnn1C1CC1 (single isomer, unassigned) [Ex-1.14, (S) or (R) 6-chloro-N-(1-cyclopropyl-5-methyl-1H-pyrazol-4-yl)-7-(2-methyl-1-(oxetan-3-yl)piperidin-4-yl)quinazolin-2-amine] | < 0.631
25 | C[C@@]1(N2CCC(c3cc4nc(Nc5cnn(C6CC6)c5Cl)ncc4cc3Cl)CC2)COC[C@@H]1O (single isomer, unassigned) [Ex-1.8, (3R,4R)- or (3S,4S)-4-(4-(6-chloro-2-((5-chloro-1-cyclopropyl-1H-pyrazol-4-yl)amino)quinazolin-7-yl)piperidin-1-yl)-4-methyltetrahydrofuran-3-ol] | 1.55
